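Where inhibition never reached the appropriate level, the endpoint shown equals the highest concentration tested. Otherwise, values were interpolated linearly from a five-concentration, 48-hour dose response in 96-well plates. Here, GI50 denotes the concentration required for 50% inhibition of growth. At the TGI there is no net growth.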
Legend:
Test in all cases: inhibition of tumour cell growth, NCI panel, 48 h
[1] = test system: TK-10 renal
[2] = test system: COLO 205 colon
[3] = test system: A549 NSCLC
[4] = test system: A498 renal
[5] = test system: SW-620 colon
[6] = test system: HT29 colon
[7] = test system: SK-OV-3 ovarian
[8] = test system: SNB-19 CNS
[9] = test system: MDA-MB-231 breast
[10] = test system: HOP-62 NSCLC
[11] = test system: SK-MEL-28 melanoma
[12] = test system: NCI-H23 lung
[13] = test system: MOLT-4 leukemia
[14] = test system: M14 melanoma
[15] = test system: CCRF-CEM leukemia
[16] = test system: NCI-H460 lung
[17] = test system: HS 578T breast
[18] = test system: SK-MEL-2 melanoma
[19] = test system: OVCAR-8 ovarian
[20] = test system: HOP-92 NSCLC
[21] = test system: CAKI-1 renal
[22] = test system: OVCAR-5 ovarian
[23] = test system: EKVX NSCLC
[24] = test system: UACC-62 melanoma
[25] = test system: MALME-3M melanoma
[26] = test system: SF-295 CNS
[27] = test system: RXF 393 renal
[28] = test system: KM12 colon
[29] = test system: UO-31 renal
[30] = test system: SN12C renal
[31] = test system: MCF7 breast
[32] = test system: SF-268 CNS
[33] = test system: U251 CNS
[34] = test system: HCT-15 colon
[35] = test system: BT-549 breast
[36] = test system: UACC-257 melanoma
[37] = test system: 786-0 renal
[38] = test system: MDA-MB-435
[39] = test system: T-47D breast
[40] = test system: OVCAR-4 ovarian
[41] = test system: HL-60(TB) leukemia
[42] = test system: DU-145 prostate
[43] = test system: NCI-H226 lung
[44] = test system: SR leukemia
[45] = test system: SNB-75 CNS
[46] = test system: HCT-116 colon
[47] = test system: K-562 leukemia
[48] = test system: OVCAR-3 ovarian
[49] = test system: ACHN renal
[50] = test system: NCI/ADR-RES ovarian
[51] = test system: SF-539 CNS
[52] = test system: RPMI-8226 leukemia
[53] = test system: IGROV1 ovarian
[54] = test system: HCC-2998 colon
[55] = test system: NCI-H522 lung
[56] = test system: LOX IMVI melanoma
[57] = test system: SK-MEL-5 melanoma
[58] = test system: PC-3 prostate
[59] = test system: MDA-N

CCCCCOc1ccc(/C=N/Nc2cc(C)nc3ccc(Br)cc23)cc1
GI50 [1]: 1.87 µM | TGI [1]: 3.42 µM | GI50 [2]: 1.96 µM | TGI [2]: 3.72 µM | GI50 [3]: 1.9 µM | TGI [3]: 3.69 µM | GI50 [4]: 1.83 µM | TGI [4]: 3.32 µM | GI50 [5]: 1.92 µM | TGI [5]: 3.63 µM | GI50 [6]: 1.94 µM | TGI [6]: 4.24 µM | GI50 [7]: 1.75 µM | TGI [7]: 3.18 µM | GI50 [8]: 1.96 µM | TGI [8]: 3.71 µM | GI50 [9]: 1.77 µM | TGI [9]: 3.41 µM | GI50 [10]: 1.73 µM | TGI [10]: 3.37 µM | GI50 [11]: 1.65 µM | TGI [11]: 3.1 µM | GI50 [12]: 1.85 µM | TGI [12]: 3.82 µM | GI50 [13]: 1.73 µM | TGI [13]: 3.58 µM | GI50 [14]: 1.88 µM | TGI [14]: 3.53 µM | GI50 [15]: 1.54 µM | TGI [15]: 3.51 µM | GI50 [16]: 1.94 µM | TGI [16]: 3.7 µM | GI50 [17]: 2.33 µM | TGI [17]: 5.64 µM | GI50 [18]: 1.98 µM | TGI [18]: 3.91 µM | GI50 [19]: 2.13 µM | TGI [19]: 4.73 µM | GI50 [20]: 1.36 µM | TGI [20]: 2.88 µM | GI50 [21]: 1.63 µM | TGI [21]: 2.99 µM | GI50 [22]: 1.83 µM | TGI [22]: 3.28 µM | GI50 [23]: 1.63 µM | TGI [23]: 3.11 µM | GI50 [24]: 1.66 µM | TGI [24]: 3.13 µM | GI50 [25]: 1.88 µM | TGI [25]: 3.46 µM | GI50 [26]: 1.81 µM | TGI [26]: 3.5 µM | GI50 [27]: 1.67 µM | TGI [27]: 3.19 µM | GI50 [28]: 1.74 µM | TGI [28]: 3.19 µM | GI50 [29]: 1.57 µM | TGI [29]: 3 µM | GI50 [30]: 1.72 µM | TGI [30]: 3.27 µM | GI50 [31]: 1.71 µM | TGI [31]: 3.68 µM | GI50 [32]: 1.97 µM | TGI [32]: 3.73 µM | GI50 [33]: 1.82 µM | TGI [33]: 3.39 µM | GI50 [34]: 1.57 µM | TGI [34]: 3.13 µM | GI50 [35]: 1.77 µM | TGI [35]: 3.43 µM | GI50 [36]: 1.88 µM | TGI [36]: 3.6 µM | GI50 [37]: 1.8 µM | TGI [37]: 3.43 µM | GI50 [38]: 1.76 µM | TGI [38]: 3.18 µM | GI50 [39]: 1.81 µM | TGI [39]: 3.89 µM | GI50 [40]: 1.76 µM | TGI [40]: 3.27 µM | GI50 [41]: 1.91 µM | TGI [41]: 3.78 µM | GI50 [42]: 1.81 µM | TGI [42]: 3.25 µM | GI50 [43]: 1.85 µM | TGI [43]: 4.32 µM | GI50 [44]: 0.448 µM | TGI [44]: 2.15 µM | GI50 [45]: 1.77 µM | TGI [45]: 3.39 µM | GI50 [46]: 1.78 µM | TGI [46]: 3.36 µM | GI50 [47]: 1.24 µM | TGI [47]: 2.83 µM | GI50 [48]: 1.92 µM | TGI [48]: 3.37 µM | GI50 [49]: 1.77 µM | TGI [49]: 3.17 µM | GI50 [50]: 1.83 µM | TGI [50]: 4.19 µM | GI50 [51]: 1.76 µM | TGI [51]: 3.23 µM | GI50 [52]: 1.91 µM | TGI [52]: 4.17 µM | GI50 [53]: 1.72 µM | TGI [53]: 3.37 µM | GI50 [54]: 2.07 µM | TGI [54]: 3.8 µM | GI50 [55]: 2.06 µM | TGI [55]: 4.71 µM | GI50 [56]: 1.86 µM | TGI [56]: 3.64 µM | GI50 [57]: 1.74 µM | TGI [57]: 3.16 µM | GI50 [58]: 1.55 µM | TGI [58]: 3.02 µM

CNC(=S)N=Nc1c(O)n(CN2CCOCC2)c2ccc([N+](=O)[O-])cc12
TGI [1]: 29.8 µM | TGI [2]: 91.3 µM | TGI [3]: > 100 µM | TGI [4]: 66.8 µM | TGI [5]: > 100 µM | TGI [6]: > 100 µM | TGI [7]: 31.9 µM | TGI [59]: > 100 µM | TGI [8]: 61.2 µM | TGI [9]: 25 µM | TGI [10]: 28.2 µM | TGI [11]: 54.8 µM | TGI [12]: 32.2 µM | TGI [13]: > 100 µM | TGI [14]: > 100 µM | TGI [15]: 71.8 µM | TGI [16]: 75 µM | TGI [17]: 73 µM | TGI [18]: 21.2 µM | TGI [20]: 43.9 µM | TGI [21]: 64.1 µM | TGI [22]: 70.5 µM | TGI [23]: 43.7 µM | TGI [24]: 33.3 µM | TGI [25]: 43.3 µM | TGI [26]: 53.4 µM | TGI [27]: 30 µM | TGI [28]: 97.9 µM | TGI [29]: 14.2 µM | TGI [30]: 38.5 µM | TGI [31]: 42.9 µM | TGI [32]: 47.5 µM | TGI [33]: 37.6 µM | TGI [34]: 26.6 µM | TGI [36]: 77.6 µM | TGI [37]: 28.7 µM | TGI [38]: > 100 µM | TGI [39]: 38.9 µM | TGI [40]: 31.2 µM | TGI [41]: 69.8 µM | TGI [42]: 27.3 µM | TGI [43]: 36.3 µM | TGI [44]: > 100 µM | TGI [46]: 28.7 µM | TGI [47]: > 100 µM | TGI [48]: 34.5 µM | TGI [49]: 35.3 µM | TGI [50]: 38 µM | TGI [51]: 33.1 µM | TGI [52]: 50.5 µM | TGI [54]: 45.1 µM | TGI [56]: 31.8 µM | TGI [57]: > 100 µM | TGI [58]: 57.5 µM

CC(CO)CCNc1ncnc2c1ncn2CCC(=O)OC(C)(C)C (stereo not given)
TGI [1]: > 100 µM | TGI [2]: > 100 µM | TGI [3]: > 100 µM | TGI [4]: > 100 µM | TGI [5]: > 100 µM | TGI [6]: > 100 µM | TGI [7]: > 100 µM | TGI [59]: > 100 µM | TGI [8]: > 100 µM | TGI [9]: > 100 µM | TGI [10]: > 100 µM | TGI [11]: > 100 µM | TGI [12]: > 100 µM | TGI [13]: > 100 µM | TGI [14]: > 100 µM | TGI [15]: > 100 µM | TGI [16]: > 100 µM | TGI [17]: > 100 µM | TGI [19]: > 100 µM | TGI [20]: > 100 µM | TGI [21]: > 100 µM | TGI [22]: > 100 µM | TGI [23]: > 100 µM | TGI [24]: > 100 µM | TGI [25]: > 100 µM | TGI [26]: > 100 µM | TGI [27]: > 100 µM | TGI [28]: > 100 µM | TGI [29]: > 100 µM | TGI [30]: > 100 µM | TGI [31]: > 100 µM | TGI [32]: > 100 µM | TGI [36]: > 100 µM | TGI [37]: > 100 µM | TGI [38]: > 100 µM | TGI [39]: > 100 µM | TGI [40]: > 100 µM | TGI [41]: > 100 µM | TGI [42]: > 100 µM | TGI [43]: > 100 µM | TGI [44]: > 100 µM | TGI [45]: > 100 µM | TGI [46]: > 100 µM | TGI [47]: > 100 µM | TGI [48]: > 100 µM | TGI [49]: > 100 µM | TGI [50]: > 100 µM | TGI [51]: > 100 µM | TGI [52]: > 100 µM | TGI [53]: > 100 µM | TGI [54]: > 100 µM | TGI [55]: > 100 µM | TGI [56]: > 100 µM | TGI [57]: > 100 µM | TGI [58]: > 100 µM

From PubChem BioAssay (NCI)
